Laboratory results published in patent publication US9994554B2, “Barbiturate and thiobarbiturate compounds for use in cancer therapy” (NUHOPE, LLC, priority 2011, dated 2018).
Values joined by “and” are separate entries in the source; they are usually repeats but may differ in a detail not shown here. Equal values may be shown once.

Columns and labels:
SW1088 = assay: Cytotoxicity (MTS or SRB assay), SW1088; type: cell-based, human
Method: Human glioma cells were ordered from American Type Culture Collection (ATCC, Manassas, Va.), and maintained in DMEM with 4×10^−3M L-glutamine, 100 U/ml penicillin, 100 μg/ml streptomycin, and 10% fetal bovine serum (FBS). All experiments were performed at 37° C. in 5% CO2 atmosphere under cell culture conditions. […] Then cells received different dosages of γ-radiation from a ^60Co source GammaCell 220 (Nordion International Inc, Ontario, Canada) or chemotherapeutic agents for another 2-6 days. Cell cytotoxicity assay was determined by MTS [3-(4,5-dimethylthiazol-2-yl)-5-(3-carboxymethoxyphenyl)-2-(4-sulfophenyl)-2H-tetrazolium, inner salt] Cell Proliferation Assay (Promega, Madison, Wis.) or sulforhodamine B (SRB) assay at the end of the exposure period (47, 48).

U87-MG = assay: cells
Method: Human neuroblastoma cell lines were cultured in Dulbecco's Modified Eagle Medium (DMEM)/F12 media. Human glioma cells were ordered from American Type Culture Collection (ATCC, Manassas, Va.), and maintained in DMEM with 4×10^−3M L-glutamine, 100 U/ml penicillin, 100 μg/ml streptomycin, and 10% fetal bovine serum (FBS). All experiments were performed at 37° C. in 5% CO2 atmosphere under cell culture conditions. Prior to γ-radiation or exposure to chemotherapeutic agents, the glioma cells were plated at a density of 156 to 8,000 cells per well in 96 well plates to account for differences in growth rates, and to obtain similar cell densities for the experimental manipulations, and cultured overnight. Then cells received different dosages of γ-radiation from a ^60Co source GammaCell 220 (Nordion International Inc, Ontario, Canada) or chemotherapeutic agents for another 2-6 days. Cell cytotoxicity assay was determined by MTS [3-(4,5-dimethylthiazol-2-yl)-5-(3-carboxymethoxyphenyl)-2-(4-sulfophenyl)-2H-tetrazolium, inner salt] Cell Proliferation Assay (Promega, Madison, Wis.) or sulforhodamine B (SRB) assay at the end of the exposure period (47, 48).
Chemotype moiety compounds of CC-I were also tested on the Temodar-resistant CCF-STTG1 and Temodar®-sensitive U87-MG cell lines. The glioma cell culture and treatment is as described above.
The human glioma CCF-STTG1 cell lines were plated at a density of 5,000 cells per well in 96 well plates under standard DMEM cell culture conditions and then exposed to different concentrations of CC-I, merbarone, or ICRF-193 for 5 days. Merbarone and ICRF-193 are both topoisomerase II inhibitors (55, 56).

U251 = assay: Cytotoxicity (MTS or SRB assay), U251; type: cell-based; conditions: human astrocytoma or glioblastoma cell line
Method: (§2) Human neuroblastoma cell lines were cultured in Dulbecco's Modified Eagle Medium (DMEM)/F12 media. Human glioma cells were ordered from American Type Culture Collection (ATCC, Manassas, Va.), and maintained in DMEM with 4×10^−3M L-glutamine, 100 U/ml penicillin, 100 μg/ml streptomycin, and 10% fetal bovine serum (FBS). All experiments were performed at 37° C. in 5% CO2 atmosphere under cell culture conditions. Prior to γ-radiation or exposure to chemotherapeutic agents, the glioma cells were plated at a density of 156 to 8,000 cells per well in 96 well plates to account for differences in growth rates, and to obtain similar cell densities for the experimental manipulations, and cultured overnight. […] Cell cytotoxicity assay was determined by MTS [3-(4,5-dimethylthiazol-2-yl)-5-(3-carboxymethoxyphenyl)-2-(4-sulfophenyl)-2H-tetrazolium, inner salt] Cell Proliferation Assay (Promega, Madison, Wis.) or sulforhodamine B (SRB) assay at the end of the exposure period (47, 48).

BREC = assay: Cytotoxicity, bovine retinal endothelial cells; type: cell-based
Method: Bovine retinal endothelial cells (BRECs) were isolated and processed according to a previously published procedure (49, 50). In brief, BREC was grown in MCDB-131 media (Sigma, St) supplemented with 10% FBS, 10 ng/mL EGF, 0.2 mg/mL ENDO GRO (VEC Technologies, Inc.), 0.09 mg/ml heparin, and antibiotic/antimycotic (Invitrogen).

ST88 = assay: Cytotoxicity, ST88 neurofibroma cells; type: cell-based, human
Method: (§1) Cells of established neurofibroma cell lines were plated at a density of 2000-4000 cells per well in 96 well plates under standard cell culture conditions (54) and then exposed to CC-I for 2 days.

NF215 = assay: Cytotoxicity, NF215 neurofibroma cells; type: cell-based, human
Method: as §1

MCF7 = assay: Cytotoxicity, MCF7; type: cell-based; conditions: human breast adenocarcinoma cell line
Method: as §2

WT/SH-SY5Y = assay: Cytotoxicity, WT/SH-SY5Y neuroblastoma; type: cell-based; conditions: wild type HFE transfected human neuroblastoma SH-SY5Y
Method: as §2

A549 cells = assay: pXC50 on A549 cells (later tests); type: cell-based
[1] = system: U87-MG or CCF-STTG1 glioma cells; assay: Intracranial orthotopic xenograft brain tumor model; conditions: 25 mg/kg i.p. once a week for 7 weeks
Method: The effect of CC-I in an intracranial, orthotopic xenograft brain tumor model was analysed. The caudate putamen region of female, athymic nude mice was injected with 10^6 human U87-MG (Temodar®-sensitive) or CCF-STTG1 (Temodar®-resistant) glioma cells in a volume of 10 μl. At one week post-injection, tumor volume was measured using Ti weighted MRI contrast (7T MR imaging system). Thereafter, CC-I was injected intraperitoneally, once a week for 7 weeks at a concentration of 25 mg/kg body weight. Tumor size was measured weekly. […] Liver and kidney toxicity (total bilirubin, blood urea nitrogen (BUN), creatine, aspartate aminotransferase (SGOT/AST), alanine aminotransferase (SGPT/ALT), and alkaline phosphatase) were also determined using an automated chemistry analyzer machine (Roche Cobase MIRA) and kits manufactured by Thermo Electron.

CCF-STTG1 cells = assay: FITC-Annexin V/propidium iodide apoptosis assay; type: cell-based, human
Method: An FITC-labeled Annexin V/propidium iodide apoptosis assay kit (Molecular Probes) was used to determine whether CC-I induces apoptosis in an astrocytoma cell line. […] The percentage of apoptotic cells by the CC-I treatment in CCF-STTG1 cells is from 10.9±0.16% at 5 pig/ml ([…]) to 48.7±0.33% at 10 μg/ml (36.2 μM). By comparison, the positive control, actinomycin D, induced apoptosis in 47.8±0.04% of the cells at 0.05 μg/ml (39.8 nM).

topoisomerase IIα [2] = biological target: T1, topoisomerase IIα (Homo sapiens, UniProt P11388); assay: kDNA decatenation assay; type: biochemical
From the text: To assess whether CC-I is a human topoisomerase IIα inhibitor, we determined the ability of CC-I to inhibit topoisomerase IIα activity using a kDNA decatenation assay.

human topoisomerase I = human topoisomerase I (Homo sapiens, UniProt P11387); assay: Supercoiled pBR322 DNA relaxation assay; type: biochemical; conditions: concentrations as high as 50 μg/ml
From the text: To determine whether CC-I is a specific inhibitor of topoisomerase I or IIα, the ability of CC-I to inhibit topoisomerases I and IIα activity was examined using a supercoiled DNA relaxation assay.

topoisomerase IIα [3] = biological target: T1, topoisomerase IIα; assay: Supercoiled pHOT1 DNA relaxation assay; type: biochemical
[4] = system: C282Y HFE variant expressing neuroblastoma SH-SY5Y cells; assay: SCID mouse subcutaneous neuroblastoma tumor model; conditions: 25 mg/kg i.p. once a week for 7 weeks
Method: To determine the effect of CC-I on neuroblastoma, an in vivo subcutaneous tumor model in SCID mice was examined. One month old, female SCID mice were injected subcutaneously in the flank region with a Temodar®- and radiation-resistant C282Y HFE variant expressing neuroblastoma SH-SY5Y cells. After the tumor attained a volume of 32 mm^3, CC-I (25 mg/kg) was injected intraperitoneally once a week for 7 weeks.

T1 sequence (P11388 whole entry): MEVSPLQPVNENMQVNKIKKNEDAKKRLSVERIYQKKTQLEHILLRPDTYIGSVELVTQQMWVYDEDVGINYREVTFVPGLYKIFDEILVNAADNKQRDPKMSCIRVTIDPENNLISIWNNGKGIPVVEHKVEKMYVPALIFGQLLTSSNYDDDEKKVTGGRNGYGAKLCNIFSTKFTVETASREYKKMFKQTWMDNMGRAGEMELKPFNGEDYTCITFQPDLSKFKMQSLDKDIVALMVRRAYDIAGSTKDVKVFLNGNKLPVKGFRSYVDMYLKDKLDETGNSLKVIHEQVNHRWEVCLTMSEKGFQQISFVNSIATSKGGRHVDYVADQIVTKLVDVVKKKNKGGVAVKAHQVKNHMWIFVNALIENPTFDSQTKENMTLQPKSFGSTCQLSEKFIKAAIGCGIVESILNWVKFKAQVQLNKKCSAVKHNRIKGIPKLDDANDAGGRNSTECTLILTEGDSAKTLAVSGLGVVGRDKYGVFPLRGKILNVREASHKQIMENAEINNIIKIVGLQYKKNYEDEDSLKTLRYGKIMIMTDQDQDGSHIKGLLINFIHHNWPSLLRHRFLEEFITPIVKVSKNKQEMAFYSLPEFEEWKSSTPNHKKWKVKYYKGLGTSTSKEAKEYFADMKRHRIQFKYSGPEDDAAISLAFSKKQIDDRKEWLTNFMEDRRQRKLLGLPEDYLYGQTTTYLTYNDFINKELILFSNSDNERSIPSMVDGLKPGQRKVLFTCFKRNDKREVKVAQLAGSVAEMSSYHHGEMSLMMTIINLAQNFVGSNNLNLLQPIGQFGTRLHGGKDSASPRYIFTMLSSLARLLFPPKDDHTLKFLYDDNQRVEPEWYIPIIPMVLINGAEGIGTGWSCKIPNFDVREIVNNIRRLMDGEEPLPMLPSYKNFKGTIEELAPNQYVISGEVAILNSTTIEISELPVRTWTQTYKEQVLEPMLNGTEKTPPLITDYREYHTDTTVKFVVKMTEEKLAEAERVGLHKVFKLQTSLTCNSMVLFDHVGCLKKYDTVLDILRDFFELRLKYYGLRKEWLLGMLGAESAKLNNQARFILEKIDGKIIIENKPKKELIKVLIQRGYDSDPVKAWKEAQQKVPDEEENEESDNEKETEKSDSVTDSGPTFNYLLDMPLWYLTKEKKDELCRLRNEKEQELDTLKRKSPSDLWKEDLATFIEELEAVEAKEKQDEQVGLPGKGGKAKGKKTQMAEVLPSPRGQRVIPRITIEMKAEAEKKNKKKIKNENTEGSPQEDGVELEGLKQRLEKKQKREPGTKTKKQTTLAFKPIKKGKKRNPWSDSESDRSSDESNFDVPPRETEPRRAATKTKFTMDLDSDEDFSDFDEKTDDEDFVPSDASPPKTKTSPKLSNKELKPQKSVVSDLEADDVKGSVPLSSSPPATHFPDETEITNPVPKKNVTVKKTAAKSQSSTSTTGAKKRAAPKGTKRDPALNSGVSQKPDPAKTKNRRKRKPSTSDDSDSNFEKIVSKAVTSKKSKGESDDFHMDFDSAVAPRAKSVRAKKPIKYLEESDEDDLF
Chain of human topoisomerase I (P11387 whole entry): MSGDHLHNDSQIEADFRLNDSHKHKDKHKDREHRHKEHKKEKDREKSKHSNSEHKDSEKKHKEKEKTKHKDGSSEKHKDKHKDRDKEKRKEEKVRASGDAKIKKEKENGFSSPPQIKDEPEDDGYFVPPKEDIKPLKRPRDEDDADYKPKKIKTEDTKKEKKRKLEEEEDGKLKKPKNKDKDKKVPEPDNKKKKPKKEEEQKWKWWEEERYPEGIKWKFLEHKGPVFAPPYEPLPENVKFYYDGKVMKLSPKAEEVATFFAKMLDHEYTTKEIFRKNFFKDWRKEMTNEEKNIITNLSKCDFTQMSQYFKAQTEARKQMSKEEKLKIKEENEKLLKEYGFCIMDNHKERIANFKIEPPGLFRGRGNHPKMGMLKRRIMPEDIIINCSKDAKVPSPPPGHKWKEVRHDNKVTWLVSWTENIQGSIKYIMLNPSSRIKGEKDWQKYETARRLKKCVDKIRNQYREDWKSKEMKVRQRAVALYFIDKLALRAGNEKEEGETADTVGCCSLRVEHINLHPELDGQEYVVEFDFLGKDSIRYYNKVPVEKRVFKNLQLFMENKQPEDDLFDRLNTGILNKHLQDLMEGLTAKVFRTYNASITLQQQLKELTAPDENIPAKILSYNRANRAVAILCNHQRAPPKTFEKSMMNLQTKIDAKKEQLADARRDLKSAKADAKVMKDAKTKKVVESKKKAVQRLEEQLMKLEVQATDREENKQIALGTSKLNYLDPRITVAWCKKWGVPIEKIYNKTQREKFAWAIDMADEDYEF

SMILES: CCN1C(=O)C(=C/C=C/c2ccco2)C(=O)NC1=S [CC-I]
- LD50 (SW1088; SW-1088 astrocytoma cells): ≈ 0.5 μg/ml and ~1.7 μM
- IC50 (SW1088; human astrocytoma or glioblastoma cell line, read-out: IC50 (μM) SW1088): 1.7 µM
- cytotoxicity compared with merbarone or ICRF-193 (U87-MG; U87-MG, 5 days): more cytotoxic
- IC50 (U87-MG; read-out: IC50 (μM) U87-MG, human astrocytoma or glioblastoma cell line): 3.9 µM
- IC50 (U251): 3.8 µM
- IC50 (BREC; bovine retinal endothelial cell): 46.9 µM
- toxicity to bovine retinal endothelial cells (BREC) (BREC; model for the blood-brain-barrier): not toxic
- LD50 (ST88; ST88 neurofibroma cells, 2 days exposure): 2.1 µg/mL
- IC50 (ST88; human neurofibroma cell line): 7.5 µM
- LD50 (NF215; NF215 neurofibroma cells, 2 days exposure): 1.4 µg/mL
- IC50 (NF215; human neurofibroma cell line): 5.1 µM
- IC50 (MCF7): 15.6 µM
- IC50 (WT/SH-SY5Y): 3.3 µM
- pXC50 (A549 cells): 4.5
- body weight of mice [1]: not affected
- liver and kidney toxicity (blood chemistry) [1]: no liver or kidney toxicity
- survival of tumor-bearing mice [1]: extended survival
- intracranial tumor growth ([1]; Temodar-resistant and -sensitive tumors): inhibited tumor growth
- percentage of apoptotic cells (CCF-STTG1 cells; CCF-STTG1, at 10 μg/ml (36.2 μM)): 48.7±0.33%
- percentage of apoptotic cells (CCF-STTG1 cells; CCF-STTG1, at 5 pig/ml (18.1 µM)): 10.9±0.16%
- concentration completely inhibiting topoisomerase IIα catalyzed kDNA decatenation (topoisomerase IIα [2]): greater than 6 μg/ml
- effect on topoisomerase I activity (human topoisomerase I): no effect
- concentration completely inhibiting topoisomerase IIα catalyzed pHOT1 relaxation (topoisomerase IIα [3]): greater than 3 μg/ml
- most effective concentration on topoisomerase IIα activity (topoisomerase IIα [3]): 3 µg/mL
- body weight [4]: unaffected
- liver or kidney toxicity [4]: No liver or kidney toxicity
- tumor growth ([4]; SCID mice): completely inhibited tumor growth
